In US20150274664A1 (MERCK SHARP & DOHME CORP., priority 2012, published 2015):
Residue numbers refer to the chain shown, from its start. One block for each compound: values may come before it.

Tests used:
[1] = molecular target: T1, human SNP variant (S309L) of GPR119 (Homo sapiens, UniProt Q8TDV5, S309L); assay: GPR119 signaling, cAMP homogenous time resolved fluorescence (HTRF) assay; type: cell-based; conditions: HEK293 Flp-In cells stably transfected with human GPR119 (S309L), HTRF kit
T1 construct: expressed in transfected cells; host or cells: HEK293 Flp-In (Invitrogen)
T1 sequence (Q8TDV5 1-335 S309L): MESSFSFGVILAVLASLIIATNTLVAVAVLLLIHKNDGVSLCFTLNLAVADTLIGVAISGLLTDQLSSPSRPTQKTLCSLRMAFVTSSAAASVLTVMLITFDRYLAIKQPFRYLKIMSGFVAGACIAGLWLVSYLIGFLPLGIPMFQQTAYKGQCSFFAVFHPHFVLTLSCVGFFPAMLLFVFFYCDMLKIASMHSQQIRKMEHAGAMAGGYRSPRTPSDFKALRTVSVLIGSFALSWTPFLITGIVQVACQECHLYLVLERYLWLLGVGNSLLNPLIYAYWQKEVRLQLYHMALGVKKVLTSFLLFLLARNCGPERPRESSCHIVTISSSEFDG
Description: Measurement of GPR119 Signaling Using a Cyclic AMP (cAMP) Homogenous Time Resolved Fluorescence (HTRF) Assay
Chinese hamster ovary (CHO) cell lines stably transfected with the permissive guanine nucleotide binding protein alpha 15 (Gals) and murine GPR119 were maintained in DMEM media containing FBS, penicillin-streptomycin, puromycin, and G418 (geneticin). Alternatively, human embryonic kidney (HEK)293 Flp-In cells (Invitrogen, Carlsbad, Calif.) were stably transfected with a human SNP variant (S309L) of GPR119 and maintained in DMEM media containing FBS, penicillin-streptomycin, and hygromycin. Agonist activation of the GPR119 receptor was measured in receptor transfected cells described above, treated with compounds of this invention, using a commercial homogenous time resolved fluorescence (HTRF) kit for measurement of cAMP (CisBio, Bedford, Mass.). The assay was performed in 96-well half-volume plates (murine) or 384-well plates (human) following the manufacturers instructions. Briefly, suspended cells were incubated with a dose titration of test compound at RT for 60 min, lysed, and incubated with HTRF reagents for an additional 60 min. The plate was read using an Envision multilabel reader (Perkin Elmer) adjusted to read time resolved fluorescence and the cAMP concentrations were extrapolated from a cAMP calibration curve. […] The concentration of test compound required to stimulate a half-maximal response (EC50), and efficacy as compared to an internal agonist control, was determined from a sigmoidal 4-parameter curve fit of the resulting plot of normalized activity versus compound concentration.

human GPR119 = molecular target: T2, human GPR119 (Homo sapiens, UniProt Q8TDV5); assay: Measurement of GPR119 signaling using LANCE 384-well cAMP kit (LCMP assay); type: cell-based; conditions: HEK293 cells stably transfected with human GPR119
T2 construct: expressed in transfected cells; host or cells: HEK293
T2 sequence (Q8TDV5 1-335): T1 sequence (Q8TDV5 1-335 S309L) with L309S
Outline: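 HEK293 cells stably expressing human GPR119, in stimulation buffer at pH 7.4 with 100 μM phosphodiesterase inhibitors, exposed to a 10-point compound dilution (2.5% DMSO final) for 45 min. cAMP measured by LANCE TR-FRET at 665 nm against a cAMP standard curve, normalized between DMSO basal and an internal agonist maximum, with a 4-parameter fit.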

EC50 [1]: 1.2 nM
SMILES: CS(=O)(=O)c1ccc(COC[C@H]2C[C@@H]2C2CCN(c3ncc(Cl)cn3)CC2)cc1 [Example 2, 5-chloro-2-(4-((1R,2S)-2-(((4-(methylsulfonyl)benzyl)oxy)methyl)cyclopropyl)piperidin-1-yl)pyrimidine]

EC50 [1]: 7.1 nM
SMILES: Cc1cnc(N2CCC([C@H]3C[C@@H]3COCc3ccc(S(C)(=O)=O)cc3)CC2)nc1 [Example 6, 5-methyl-2-(4-((1R,2S)-2-(((4-(methylsulfonyl)benzyl)oxy)methyl)cyclopropyl)piperidin-1-yl)pyrimidine]

EC50 [1]: 5.8 nM
SMILES: CCS(=O)(=O)c1ccc(COC[C@H]2C[C@@H]2C2CCN(c3ncc(C)cn3)CC2)cc1 [Example 7, 2-(4-((1R,2S)-2-(((4-(ethylsulfonyl)benzyl)oxy)methyl)cyclopropyl)piperidin-1-yl)-5-methylpyrimidine]

EC50 [1]: 1.9 nM
SMILES: CCc1cnc(N2CCC([C@H]3C[C@@H]3COCc3ccc(S(C)(=O)=O)cc3)CC2)nc1 [Example 10, 5-ethyl-2-(4-((1R,2S)-2-(((4-(methylsulfonyl)benzyl)oxy)methyl)cyclopropyl)piperidin-1-yl)pyrimidine]

EC50 [1]: 6.4 nM
SMILES: CC1(OC(=O)N2CCC([C@H]3C[C@@H]3COCc3ccc(S(C)(=O)=O)cc3)CC2)CC1 [Example 18, 1-methylcyclopropyl 4-((1R,2S)-2-(((4-(methylsulfonyl)benzyl)oxy)methyl)cyclopropyl)piperidine-1-carboxylate]

EC50 [1]: 9.1 nM
SMILES: CC(C)OC(=O)N1CCC([C@H]2C[C@@H]2COCc2ccc(S(C)(=O)=O)cc2)CC1 [Example 19, isopropyl 4-((1R,2S)-2-(((4-(methylsulfonyl)benzyl)oxy)methyl)cyclopropyl)piperidine-1-carboxylate]

EC50 [1]: 5.8 nM
SMILES: CC(C)OC(=O)N1CCC([C@H]2C[C@@H]2COCc2ccc(S(C)(=O)=O)c(F)c2)CC1 [Example 20, isopropyl 4-((1R,2S)-2-(((3-fluoro-4-(methylsulfonyl)benzyl)oxy)methyl)cyclopropyl)piperidine-1-carboxylate]

EC50 [1]: 3.2 nM
SMILES: CC(C)c1noc(N2CCC([C@H]3C[C@@H]3COCc3ccc(S(C)(=O)=O)c(F)c3)CC2)n1 [Example 22, 5-(4-((1R,2S)-2-(((3-fluoro-4-(methylsulfonyl)benzyl)oxy)methyl)cyclopropyl)piperidin-1-yl)-3-isopropyl-1,2,4-oxadiazole]

EC50 [1]: 7.9 nM
SMILES: CCCc1noc(N2CCC([C@@H]3C[C@H]3CCOc3ccc(S(C)(=O)=O)cn3)CC2)n1 [Example 113, 5-(4-((1S,2S)-2-(2-((5-(methylsulfonyl)pyridin-2-yl)oxy)ethyl)cyclopropyl)piperidin-1-yl)-3-propyl-1,2,4-oxadiazole]

EC50 (human GPR119): 21 nM
SMILES: CC1(OC(=O)N2CCC([C@@H]3C[C@H]3CCOc3ccc(CC(=O)N4CCC4)cn3)CC2)CC1 [Example 120, 1-methylcyclopropyl 4-((1S,2S)-2-(2-(5-(2-(azetidin-1-yl)-2-oxoethyl)pyridin-2-yloxy)ethyl)cyclopropyl)piperidine-1-carboxylate]

EC50 (human GPR119): 20 nM
SMILES: CC(C)c1noc(N2CCC([C@H]3C[C@@H]3CCOc3cc(F)cc(F)c3CC(=O)N(C)C)CC2)n1 [Example 122, 2-(2,4-difluoro-6-(2-((1R,2R)-2-(1-(3-isopropyl-1,2,4-oxadiazol-5-yl)piperidin-4-yl)cyclopropyl)ethoxy)phenyl)-N,N-dimethylacetamide]

EC50 (human GPR119): 18 nM
SMILES: CCc1cnc(N2CCC([C@H]3C[C@@H]3CCNc3ncc(-n4cnnn4)cn3)CC2)nc1 [Example 125, N-(2-((1R,2S)-2-(1-(5-ethylpyrimidin-2-yl)piperidin-4-yl)cyclopropyl)ethyl)-5-(1H-tetrazol-1-yl)pyrimidin-2-amine]

Second part, the compound before the results:

SMILES: CS(=O)(=O)c1ccc(COC[C@H]2C[C@@H]2C2CCN(c3ncc(Cl)cn3)CC2)nc1 [Example 1, 5-chloro-2-(4-((1R,2S)-2-(((5-(methylsulfonyl)pyridin-2-yl)methoxy)methyl)cyclopropyl)piperidin-1-yl)pyrimidine]
EC50 [1]: 3.8 nM

SMILES: CCS(=O)(=O)c1ccc(COC[C@H]2C[C@@H]2C2CCN(c3ncc(Cl)cn3)CC2)cc1 [Example 3, 5-chloro-2-(4-((1R,2S)-2-(((4-(ethylsulfonyl)benzyl)oxy)methyl)cyclopropyl)piperidin-1-yl)pyrimidine]
EC50 [1]: 0.73 nM

SMILES: CS(=O)(=O)c1ccc(COC[C@H]2C[C@@H]2C2CCN(c3ncc(Cl)cn3)CC2)cc1F [Example 5, 5-chloro-2-(4-((1R,2S)-2-(((3-fluoro-4-(methylsulfonyl)benzyl)oxy)methyl)cyclopropyl)piperidin-1-yl)pyrimidine]
EC50 [1]: 1 nM

SMILES: CS(=O)(=O)c1ccc(COC[C@H]2C[C@@H]2C2CCN(C(=O)OC3CC3)CC2)cc1F [Example 15, cyclopropyl 4-((1R,2S)-2-(((3-fluoro-4-(methylsulfonyl)benzyl)oxy)methyl)cyclopropyl)piperidine-1-carboxylate]
EC50 [1]: 2.4 nM

SMILES: CS(=O)(=O)c1ccc(COC[C@H]2C[C@@H]2C2CCN(C(=O)OC3CC3)CC2)cc1 [Example 16, cyclopropyl 4-((1R,2S)-2-(((4-(methylsulfonyl)benzyl)oxy)methyl)cyclopropyl)piperidine-1-carboxylate]
EC50 [1]: 5.7 nM

SMILES: CC1(OC(=O)N2CCC([C@H]3C[C@@H]3COCc3ccc(S(C)(=O)=O)c(F)c3)CC2)CC1 [Example 17, 1-methylcyclopropyl 4-((1R,2S)-2-(((3-fluoro-4-(methylsulfonyl)benzyl)oxy)methyl)cyclopropyl)piperidine-1-carboxylate]
EC50 [1]: 4.6 nM

SMILES: CC(C)c1noc(N2CCC([C@H]3C[C@@H]3COCc3ccc(S(C)(=O)=O)cc3)CC2)n1 [Example 21, 3-isopropyl-5-(4-((1R,2S)-2-((4-(methylsulfonyl)benzyloxy)methyl)cyclopropyl)piperidin-1-yl)-1,2,4-oxadiazole]
EC50 [1]: 3.8 nM

SMILES: Cc1nnc(-c2ccc(OCC[C@@H]3C[C@H]3C3CCN(c4ncc(Cl)cn4)CC3)cc2F)o1 [Example 64, 2-(4-(2-((1S,2S)-2-(1-(5-chloropyrimidin-2-yl)piperidin-4-yl)cyclopropyl)ethoxy)-2-fluorophenyl)-5-methyl-1,3,4-oxadiazole]
EC50 [1]: 8.4 nM

SMILES: CS(=O)(=O)c1ccc(OCC[C@@H]2C[C@H]2C2CCN(c3nc(C4CC4)no3)CC2)nc1 [Example 112, 3-cyclopropyl-5-(4-((1S,2S)-2-(2-((5-(methylsulfonyl)pyridin-2-yl)oxy)ethyl)cyclopropyl)piperidin-1-yl)-1,2,4-oxadiazole]
EC50 [1]: 6.1 nM

SMILES: CCc1cnc(N2CCC([C@H]3C[C@@H]3CCOc3cc(F)cc(F)c3CC(=O)N3CCC3)CC2)nc1 [Example 119, 1-(azetidin-1-yl)-2-(2-(2-((1R,2R)-2-(1-(5-ethylpyrimidin-2-yl)piperidin-4-yl)cyclopropyl)ethoxy)-4,6-difluorophenyl)ethanone]
EC50 (human GPR119): 17 nM

SMILES: CC(C)c1noc(N2CCC([C@@H]3C[C@H]3CCOc3ccc(CC(=O)N4CCC4)cn3)CC2)n1 [Example 121, 1-(azetidin-1-yl)-2-(6-(2-((1S,2S)-2-(1-(3-isopropyl-1,2,4-oxadiazol-5-yl)piperidin-4-yl)cyclopropyl)ethoxy)pyridin-3-yl)ethanone]
EC50 (human GPR119): 24 nM

SMILES: Clc1cnc(N2CCC([C@H]3C[C@@H]3CCNc3ncc(-n4cnnn4)cn3)CC2)nc1 [Example 123, N-(2-((1R,2S)-2-(1-(5-chloropyrimidin-2-yl)piperidin-4-yl)cyclopropyl)ethyl)-5-(1H-tetrazol-1-yl)pyrimidin-2-amine]
EC50 (human GPR119): 10 nM

SMILES: CC(C)c1noc(N2CCC([C@@H]3C[C@H]3CCNc3ncc(-n4cnnn4)cn3)CC2)n1 [Example 126, N-(2-((1S,2R)-2-(1-(3-isopropyl-1,2,4-oxadiazol-5-yl)piperidin-4-yl)cyclopropyl)ethyl)-5-(1H-tetrazol-1-yl)pyrimidin-2-amine]
EC50 (human GPR119): 16 nM
